Reference: patent US12485169B2, “Compounds” (GREY WOLF THERAPEUTICS LIMITED, priority 2018, dated 2025)

target: T1, Purified ERAP1 (37-941)-10His (ERAP1) (Homo sapiens, UniProt Q9NZ08); test: ERAP1 mediated hydrolysis of an amide substrate (10-mer inhibition assay), biochemical system; conditions: 10-mer substrate, 23° C., 1 h, excitation 279 nm / emission 355 nm; read-out: IC50 vs Decapeptide WRVYEKC(Dnp)ALK-acid (where Dnp is Dinitrophenyl maleimide) (10-mer)
T1 construct: Purified ERAP1 (37-941)-10His (ERAP1)
Method: However, as ERAP1 hydrolyses the N-terminal amide bond and tryptophan is released this internal quenching is lost and the reaction is monitored by the increase in tryptophan fluorescence over the course of the assay. For the purposes of this application this assay is referred to as the “10mer inhibition assay” and compound potencies are calculated and expressed as IC50 as would be familiar to a person skilled in the art.
Biological Assay 1: ERAP1 Mediated Hydrolysis of an Amide Substrate Measured in a Biochemical System
Decapeptide WRVYEKC(Dnp)ALK-acid (where Dnp is Dinitrophenyl maleimide) (10-mer) L-Leucine 7-amido-4-methylcoumarin (L-AMC)
12.5 μL ERAP1 enzyme in 1×AB was combined with 250 nL test compound in DMSO. […] For detection, plates were read at excitation 365 nm and emission 442 nm (L-AMC) or excitation 279 nm and emission 355 nm (10-mer).

T1 sequence (Q9NZ08 37-941): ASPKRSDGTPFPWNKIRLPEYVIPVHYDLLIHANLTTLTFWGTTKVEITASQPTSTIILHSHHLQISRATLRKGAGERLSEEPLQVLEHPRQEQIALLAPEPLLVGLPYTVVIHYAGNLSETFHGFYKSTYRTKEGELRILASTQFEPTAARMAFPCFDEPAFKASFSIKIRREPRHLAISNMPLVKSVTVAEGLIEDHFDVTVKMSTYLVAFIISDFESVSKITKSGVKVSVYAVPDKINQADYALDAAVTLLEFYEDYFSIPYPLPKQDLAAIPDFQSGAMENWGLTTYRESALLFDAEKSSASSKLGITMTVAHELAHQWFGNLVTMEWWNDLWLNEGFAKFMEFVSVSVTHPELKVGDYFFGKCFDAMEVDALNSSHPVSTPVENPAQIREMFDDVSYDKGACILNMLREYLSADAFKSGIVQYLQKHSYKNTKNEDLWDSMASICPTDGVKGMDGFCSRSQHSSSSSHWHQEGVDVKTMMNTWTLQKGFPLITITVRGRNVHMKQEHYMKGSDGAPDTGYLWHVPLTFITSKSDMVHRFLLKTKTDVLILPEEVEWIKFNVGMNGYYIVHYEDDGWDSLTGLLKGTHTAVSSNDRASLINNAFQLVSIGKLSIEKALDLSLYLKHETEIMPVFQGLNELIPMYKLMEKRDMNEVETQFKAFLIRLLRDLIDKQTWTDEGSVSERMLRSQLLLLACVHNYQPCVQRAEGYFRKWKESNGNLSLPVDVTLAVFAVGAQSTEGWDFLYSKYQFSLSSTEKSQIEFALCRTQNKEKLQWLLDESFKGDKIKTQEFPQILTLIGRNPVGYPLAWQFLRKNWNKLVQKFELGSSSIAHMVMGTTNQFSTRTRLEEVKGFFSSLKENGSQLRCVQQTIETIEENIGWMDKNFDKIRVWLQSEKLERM

Row | Compound | IC50
1 | COc1ccc(C(=O)O)cc1S(=O)(=O)Nc1cc(C(F)(F)F)ccc1N(C)C [Example 77, 3-(N-(2-(dimethylamino)-5-(trifluoromethyl)phenyl)sulfamoyl)-4-methoxybenzoic acid] | < 5 µM
2 | COc1ccc(C(=O)O)cc1S(=O)(=O)Nc1cc(C(F)(F)F)ccc1N1C[C@H]2CCCC[C@H]2C1 [Example 25, 4-methoxy-3-(N-(2-(cis-octahydroisoindol-2-yl)-5-(trifluoromethyl)phenyl)sulfamoyl)benzoic acid] | < 5 µM
3 | COc1ccc(C(=O)O)cc1S(=O)(=O)Nc1cc(C(F)(F)F)ccc1N1CCCC1 [Example 75, 4-methoxy-3-(N-(2-(pyrrolidin-1-yl)-5-(trifluoromethyl)phenyl)sulfamoyl)benzoic acid] | < 5 µM
4 | COc1ccc(C(=O)O)cc1S(=O)(=O)Nc1cc(C(F)(F)F)ccc1N1CC(O)(C(F)(F)F)C1 [Example 26, 3-(N-(2-(3-hydroxy-3-(trifluoromethyl)azetidin-1-yl)-5-(trifluoromethyl)phenyl)sulfamoyl)-4-methoxybenzoic acid] | < 0.5 µM
5 | CCCCc1ccc(C(=O)O)cc1S(=O)(=O)Nc1cc(C(F)(F)F)ccc1N1CCCCC1 [Example 268, 4-butyl-3-(N-(2-(piperidin-1-yl)-5-(trifluoromethyl)phenyl)sulfamoyl)benzoic acid] | < 0.5 µM
6 | COc1ccc(C(=O)O)cc1S(=O)(=O)Nc1cc(C(F)(F)F)ccc1N1CCCC[C@H]1C [Example 235, I-4-methoxy-3-(N-(2-(2-methylpiperidin-1-yl)-5-(trifluoromethyl)phenyl)sulfamoyl)benzoic acid] | < 0.5 µM
7 | COc1ccc(C(=O)O)cc1S(=O)(=O)Nc1cc(C(F)(F)F)ccc1N1CCCC(OC)C1 (centres unmarked) [Example 179, 4-methoxy-3-(N-(2-(3-methoxypiperidin-1-yl)-5-(trifluoromethyl)phenyl)sulfamoyl)benzoic acid] | < 0.5 µM
8 | CCc1ccc(C(=O)O)cc1S(=O)(=O)Nc1cc(S(C)(=O)=O)ccc1N1CC(C)(O)C1 [Example 255, 4-ethyl-3-(N-(2-(3-hydroxy-3-methylazetidin-1-yl)-5-(methylsulfonyl)phenyl)sulfamoyl)benzoic acid] | < 5 µM
9 | O=C(O)c1ccc(C(F)(F)F)c(S(=O)(=O)Nc2cc(C(F)(F)F)ccc2N2CCCCC2)c1 [Example 200, 3-(N-(2-(piperidin-1-yl)-5-(trifluoromethyl)phenyl)sulfamoyl)-4-(trifluoromethyl)benzoic acid] | < 5 µM
10 | COc1ccc(C(=O)O)cc1S(=O)(=O)Nc1cc(S(C)(=O)=O)ccc1N1CCCCC1 [Example 207, 4-methoxy-3-(N-(5-(methylsulfonyl)-2-(piperidin-1-yl)phenyl)sulfamoyl)benzoic acid] | < 0.5 µM
11 | COc1ccc(C(=O)O)cc1S(=O)(=O)Nc1cc(C(F)(F)F)ccc1N1CCC[C@@H](O)C1 [Example 243, I-3-(N-(2-(3-hydroxypiperidin-1-yl)-5-(trifluoromethyl)phenyl)sulfamoyl)-4-methoxybenzoic acid] | < 0.5 µM
12 | O=C(O)c1ccc(C2CC2)c(S(=O)(=O)Nc2cc(-n3cnnn3)c(F)cc2N2CCCCC2)c1 [Example 333, 4-cyclopropyl-3-(N-(4-fluoro-2-(piperidin-1-yl)-5-(tetrazol-1-yl)phenyl)sulfamoyl)benzoic acid] | < 0.5 µM
13 | COc1ccc(C(=O)O)cc1S(=O)(=O)Nc1cc(C(F)(F)F)ccc1N1CCC(C)CC1 [Example 84, 4-methoxy-3-(N-(2-(4-methylpiperidin-1-yl)-5-(trifluoromethyl)phenyl)sulfamoyl)benzoic acid] | < 5 µM
14 | O=C(O)c1ccc(C2CCO2)c(S(=O)(=O)Nc2cc(C(F)(F)F)ccc2N2CCCCC2)c1 (centres unmarked) [Example 272, 4-(oxetan-2-yl)-3-(N-(2-(piperidin-1-yl)-5-(trifluoromethyl)phenyl)sulfamoyl)benzoic acid] | < 0.5 µM
15 | COc1ccc(C(=O)O)cc1NS(=O)(=O)c1cc(C(F)(F)F)ccc1N(C)C [Example 51, 3-((2-(dimethylamino)-5-(trifluoromethyl)phenyl)sulfonamido)-4-methoxybenzoic acid] | < 0.5 µM
16 | CCc1ccc(C(=O)O)cc1S(=O)(=O)Nc1cc(-c2ccno2)ccc1N1CCCCC1 [Example 300, 4-ethyl-3-(N-(5-(isoxazol-5-yl)-2-(piperidin-1-yl)phenyl)sulfamoyl)benzoic acid] | < 0.5 µM
17 | CCc1ccc(C(=O)O)cc1S(=O)(=O)Nc1cc(-c2ccn(C)n2)ccc1N1CCCCC1 [Example 280, 4-ethyl-3-(N-(5-(1-methylpyrazol-3-yl)-2-(piperidin-1-yl)phenyl)sulfamoyl)benzoic acid] | < 0.5 µM
18 | CSc1ccc(C(=O)O)cc1S(=O)(=O)Nc1cc(C(F)(F)F)ccc1N1CCCCC1 [Example 232, 4-(methylthio)-3-(N-(2-(piperidin-1-yl)-5-(trifluoromethyl)phenyl)sulfamoyl)benzoic acid] | < 0.5 µM
19 | COc1ccc(C(=O)O)cc1S(=O)(=O)Nc1cc(C(F)(F)F)ccc1N1CCC(C)(C)C1 [Example 39, 3-(N-(2-(3,3-dimethylpyrrolidin-1-yl)-5-(trifluoromethyl)phenyl)sulfamoyl)-4-methoxybenzoic acid] | < 5 µM
20 | CCc1ccc(C(=O)O)cc1S(=O)(=O)Nc1cc(-c2cccnn2)ccc1N1CCCCC1 [Example 293, 4-ethyl-3-(N-(2-(piperidin-1-yl)-5-(pyridazin-3-yl)phenyl)sulfamoyl)benzoic acid] | < 0.5 µM
21 | COc1ccc(-c2nn[nH]n2)cc1S(=O)(=O)Nc1cc(C(F)(F)F)ccc1N1CCCCC1 [Example 171, 2-methoxy-N-(2-(piperidin-1-yl)-5-(trifluoromethyl)phenyl)-5-(tetrazol-5-yl)benzenesulfonamide] | < 5 µM

More lines, now with the values ahead:

Row | IC50 | Compound
22 | < 0.5 µM | COc1ccc(C(=O)O)cc1S(=O)(=O)Nc1cc(C#N)ccc1N1CCCC(O)C1 (centres unmarked) [Example 223, 3-(N-(5-cyano-2-(3-hydroxypiperidin-1-yl)phenyl)sulfamoyl)-4-methoxybenzoic acid]
23 | < 0.5 µM | CCc1ccc(C(=O)O)cc1S(=O)(=O)Nc1cc(C(F)(F)F)ccc1N1CCCC(F)(F)C1 [Example 204, 3-(N-(2-(3,3-difluoropiperidin-1-yl)-5-(trifluoromethyl)phenyl)sulfamoyl)-4-ethylbenzoic acid]
24 | < 0.5 µM | CCc1ccc(C(=O)O)cc1S(=O)(=O)Nc1cc(-n2cnnn2)ccc1N1CCC[C@@H](O)C1 [Example 252, I-4-ethyl-3-(N-(2-(3-hydroxypiperidin-1-yl)-5-(tetrazol-1-yl)phenyl)sulfamoyl)benzoic acid]
25 | < 0.5 µM | COc1ccc(C(=O)O)cc1S(=O)(=O)Nc1cc(S(C)(=O)=O)ccc1N1CCC[C@@H](O)C1 [Example 245, I-3-(N-(2-(3-hydroxypiperidin-1-yl)-5-(methylsulfonyl)phenyl)sulfamoyl)-4-methoxybenzoic acid]
26 | < 0.5 µM | CCc1ccc(C(=O)O)cc1S(=O)(=O)Nc1cc(-c2ccns2)ccc1N1CCCCC1 [Example 286, 4-ethyl-3-(N-(5-(isothiazol-5-yl)-2-(piperidin-1-yl)phenyl)sulfamoyl)benzoic acid]
27 | < 0.5 µM | N#Cc1cc(NS(=O)(=O)c2cc(C(=O)O)ccc2C2CC2)c(N2CCCCC2)cc1Cl [Example 327, 3-(N-(4-chloro-5-cyano-2-(piperidin-1-yl)phenyl)sulfamoyl)-4-cyclopropylbenzoic acid]
28 | < 0.5 µM | COc1ccc(C(=O)O)cc1S(=O)(=O)Nc1cc(C(F)(F)F)ccc1N1CCCOCC1 [Example 32, 3-(N-(2-(1,4-oxazepan-4-yl)-5-(trifluoromethyl)phenyl)sulfamoyl)-4-methoxybenzoic acid]
29 | < 0.5 µM | CCc1ccc(C(=O)O)cc1S(=O)(=O)Nc1cc(-c2cnnn2C)ccc1N1CCCCC1 [Example 274, 4-ethyl-3-(N-(5-(1-methyl-1,2,3-triazol-5-yl)-2-(piperidin-1-yl)phenyl)sulfamoyl)benzoic acid]
30 | < 0.5 µM | COc1ccc(C(=O)O)cc1S(=O)(=O)Nc1cc(C(F)(F)F)ccc1N1CCC(O)CC1 [Example 35, 3-(N-(2-(4-hydroxypiperidin-1-yl)-5-(trifluoromethyl)phenyl)sulfamoyl)-4-methoxybenzoic acid]
31 | < 0.5 µM | CCc1ccc(C(=O)O)cc1S(=O)(=O)Nc1cc(-c2cnoc2)ccc1N1CCCCC1 [Example 297, 4-ethyl-3-(N-(5-(isoxazol-4-yl)-2-(piperidin-1-yl)phenyl)sulfamoyl)benzoic acid]
32 | < 0.5 µM | COc1ccc(C(=O)O)cc1S(=O)(=O)Nc1cc(C(F)(F)F)ccc1N1CCC[C@H](O)C1 [Example 244, (S)-3-(N-(2-(3-hydroxypiperidin-1-yl)-5-(trifluoromethyl)phenyl)sulfamoyl)-4-methoxybenzoic acid]
33 | < 0.5 µM | CCc1ccc(C(=O)O)cc1S(=O)(=O)Nc1cc(-c2cn(C)nn2)ccc1N1CCCCC1 [Example 273, 4-ethyl-3-(N-(5-(1-methyl-1,2,3-triazol-4-yl)-2-(piperidin-1-yl)phenyl)sulfamoyl)benzoic acid]
34 | < 0.5 µM | CCc1ccc(C(=O)O)cc1S(=O)(=O)Nc1cc(C(F)F)ccc1N1CCCCC1 [Example 213, 3-(N-(5-(difluoromethyl)-2-(piperidin-1-yl)phenyl)sulfamoyl)-4-ethylbenzoic acid]
35 | < 0.5 µM | Cc1cc(C#N)cc(NS(=O)(=O)c2cc(C(=O)O)ccc2C2CC2)c1N1CCCCC1 [Example 336, 3-(N-(5-cyano-3-methyl-2-(piperidin-1-yl)phenyl)sulfamoyl)-4-cyclopropylbenzoic acid]
